Measurements taken from patent publication US20050277622A1, “1-Calcium phosphate-uracil and method for preparing thereof” (priority 2004, published 2005).

Assays:
Type in all cases: in vivo, human
[1] = Clinical Case 8: sleeping and stamina; settings: 20 persons aging 12˜70 years; 15 mg per day for one day
Source text: The medicament can ameliorate sleeping and supplement stamina.

[2] = Clinical Case 2: cough, hyperplasia of prostate and constipation; settings: person one, oral, 15 mg per day for 5 days
Description: person one, who had been suffering from cough for about 50 years and hyperplasia of prostate for 7 years and recently relapsed into continued cough for 15 days and constipation, was administrated orally with medicament of 1-calcium phosphate-uracil for 5 days, 15 mg per day.

[3] = Clinical Case 6: constipation for about 10 years; settings: 4 persons, 1-2 times a week on conventional drugs; oral, 12 mg˜15 mg one time per day for 1 day
Source text: 4 persons, who had suffered from constipation for about 10 years, defecated 1-2 times a week when administrated with conventional drugs.

[4] = Clinical Case 1: continued bad cough not susceptive to antibiotics therapy; settings: person two, oral, 15 mg per day for 5 days
Description: person two, who had been suffering from a continued bad cough for 2 months and not susceptive to antibiotics therapy, was administrated orally with medicament of 1-calcium phosphate-uracil for 5 days, 15 mg per day.

[5] = Clinical Case 7: frequent premature beat, cardiac distress and constipation; settings: person, oral
Description: A person, who had suffered from frequent premature beat, cardiac distress for 3 years and constipation for 5 years, was administrated orally with medicament of 1-calcium phosphate-uracil for 20 days, 13 mg per day.
The therapeutic effect: the symptoms of palpitation premature beat and cardiac distress disappeared completely after 20 days from administration and constipation symptom disappeared after 1 day from administration.

influenza [6] = test: Clinical Case 5: treatment of persons infected with influenza; settings: 2 infected persons, oral, 15 mg one time per day for 3 days
Description: One day after infection, 2 of 6 infected persons were administrated orally with medicament of 1-calcium phosphate-uracil for 3 day, one time per day, 15 mg each time. Therapeutic effect: fever was allayed after 1 day and symptom of cough faded away after 3 days. Instead of being administrated with medicament of 1-calcium phosphate-uracil, the other 4 infected persons were treated according to conventional therapeutic regimen, recovered until after 15 days.

[7] = Clinical Case 4: fever of 40.5° C.; settings: person, oral, 15 mg one time per day for 1 day
Source text: Therapeutic effect: fever was allayed after 1 day and symptom of cough disappeared after 3 days.

influenza [8] = test: Clinical Case 5: administration in advance during influenza period; settings: 2 of 8 persons in a dormitory, oral in advance, 15 mg one time per day for 1 day; other 6 persons all infected
[9] = Clinical Case 3: cold with fever of 39° C.; settings: person, oral, 15 mg per day for 1 day
Source text: Therapeutic effect: fever was allayed after 1 day and symptom of cough disappeared after 2 days.

[10] = Clinical Case 9: liver cancer in a most serious stage; settings: person; oral, 15 mg one time per day for 10 months
Description: A person, who suffered liver cancer in a most serious stage, was administrated orally with medicament of 1-calcium phosphate-uracil for 10 months, one time per day, 15 mg each time.
Therapeutic effect: liver tumor was disappeared upon the examination of CT.

With 1-calcium phosphate-uracil the “sleeping on the same day” value [1] was “good sleeping”, the “stamina in the next day” value [1] was “full of vigor” and the cough symptom ([2]; continued cough for 15 days) was “alleviated”. For the same substance, the frequency of nocturia ([2]; hyperplasia of prostate for 7 years) was “decreased significantly”, the constipation [2] was “disappeared” and the defecation [3] was “defecated smoothly, once a day”. For the same substance, the symptom of cough ([4]; cough for 2 months) was “cured completely”, the “symptom of incontinence of urine” value [4] was “disappeared” and the “constipation symptom disappeared after” value ([5]; constipation for 5 years, 13 mg per day) was 1 days. The “symptoms of palpitation premature beat and cardiac distress disappeared completely after” value ([5]; 13 mg per day for 20 days) was 20 days, the “fever was allayed after” value (influenza [6]; one day after infection) was 1 days and the “symptom of cough faded away after” value (influenza [6]; conventional regimen recovered after 15 days) was 3 days. The “fever was allayed after” value ([7]; fever of 40.5° C.) was 1 days, the “symptom of cough disappeared after” value [7] was 3 days and the infection with influenza (influenza [8]) was “not infected with influenza”. The “fever was allayed after” value ([9]; fever of 39° C.) was 1 days, the “symptom of cough disappeared after” value [9] was 2 days and the “liver tumor upon the examination of CT” value [10] was “disappeared”.
